Experimental data taken from patent US20160313301A1, “METHOD FOR PREDICTING ANTITUMOR EFFICACY OF HSP90 INHIBITOR IN CANCER TREATMENT” (NIPPON KAYAKU KABUSHIKI KAISHA, priority 2013, published 2016).
Entries after “also recorded” stand apart in the source; their conditions may differ.

How the values were obtained:
Format in all cases: in vivo
[1] = test system: human ovarian cancer cell line ES-2; experiment: Anti-tumor test in mice transplanted subcutaneously with tumor (ES-2); details: ES-2 s.c. in mice
Protocol: (§1) Human ovarian cancer cell lines OC-10-JCK, OC-11-JCK, and TOGY-18, and a human breast cancer cell line MC-19-JCK were obtained from Central Institute for Experimental Animals. Cryopreserved tumor pieces were thawed, and then OC-10-JCK, OC-11-JCK, and MC-19-JCK were transplanted subcutaneously to SCID mice, while TOGY-18 was transplanted subcutaneously to nude mice. After the tumors were grown, the tumors were removed and cut into tumor pieces. The tumor pieces were transplanted subcutaneously to SCID mice or nude mice with trocars. The tumors were maintained by repeated transplantation in the same manner as described above to prepare tumors to be transplanted. Human ovarian cancer cell lines ES-2, SK-OV-3, OV-90, and TOV-21G, and a human lung cancer cell line NCI-H1975 were obtained from American Type Culture Collection (ATCC). The SK-OV-3 and NCI-H1975 cell lines were grown in recommended culture media, of which about 1×10^7 cells were suspended into HBSS and then injected subcutaneously to SCID mice. After the cells formed tumors, the tumors were removed and cut into tumor pieces. The tumor pieces were transplanted subcutaneously to SCID mice with trocars. The tumors were maintained by repeated transplantation in the same manner as described above to prepare tumors to be transplanted. […]

[2] = test system: human breast cancer cells JIMT-1; experiment: Anti-tumor test in mice transplanted subcutaneously with tumor (JIMT-1); details: JIMT-1 s.c. in mice; 40 mg/kg three times at 7 day intervals
Protocol: as §1

[3] = test system: human ovarian cancer cells OC-11-JCK/CDDP; experiment: Anti-tumor test in mice transplanted subcutaneously with tumor (OC-11-JCK/CDDP); details: OC-11-JCK/CDDP s.c. in mice; 40 mg/kg tail vein three times at 4 day intervals
Protocol: as §1

[4] = test system: human breast cancer cells MC-19-JCK; experiment: Anti-tumor test in mice transplanted subcutaneously with tumor (MC-19-JCK); details: MC-19-JCK s.c. in mice; administered once at 40 mg/kg
Protocol: as §1

[5] = test system: human ovarian cancer cells TOGY-18; experiment: Anti-tumor test in mice transplanted subcutaneously with tumor (TOGY-18); details: TOGY-18 s.c. in mice; 40 mg/kg tail vein three times at 4 day intervals
Protocol: as §1

[6] = test system: human ovarian cancer cell line OC-10-JCK; experiment: Anti-tumor test in mice transplanted subcutaneously with tumor (OC-10-JCK); details: OC-10-JCK s.c. in mice; 40 mg/kg tail vein three times at 4 day intervals
Protocol: as §1

[7] = test system: human lung cancer cells NCI-H1975; experiment: Anti-tumor test in mice transplanted subcutaneously with tumor (NCI-H1975); details: NCI-H1975 s.c. in mice; 40 mg/kg three times at 7 day intervals
Protocol: as §1

[8] = test system: human ovarian cancer cells SHIN-3; experiment: Anti-tumor test in mice transplanted subcutaneously with tumor (SHIN-3); details: SHIN-3 s.c. in mice
Protocol: as §1

[9] = test system: human ovarian cancer cells TOV-21G; experiment: Anti-tumor test in mice transplanted subcutaneously with tumor (TOV-21G); details: TOV-21G s.c. in mice
Protocol: as §1

[10] = test system: human ovarian cancer cells OV-90; experiment: Anti-tumor test in mice transplanted subcutaneously with tumor (OV-90); details: OV-90 s.c. in mice
Protocol: as §1

[11] = test system: human ovarian cancer cells OC-11-JCK; experiment: Anti-tumor test in mice transplanted subcutaneously with tumor (OC-11-JCK); details: OC-11-JCK s.c. in mice; 40 mg/kg tail vein three times at 4 day intervals
Protocol: as §1

[12] = test system: human ovarian cancer cells SK-OV-3; experiment: Anti-tumor test in mice transplanted subcutaneously with tumor (SK-OV-3); details: SK-OV-3 s.c. in mice
Protocol: as §1

[13] = test system: human ovarian cancer cells OVCAR-3; experiment: Anti-tumor test in mice transplanted subcutaneously with tumor (OVCAR-3)
[14] = test system: human ovarian cancer cells OC-11-JCK/PTX; experiment: Anti-tumor test in mice transplanted subcutaneously with tumor (OC-11-JCK/PTX); details: OC-11-JCK/PTX s.c. in mice
Protocol: Human ovarian cancer cell lines OC-10-JCK, OC-11-JCK, and TOGY-18, and a human breast cancer cell line MC-19-JCK were obtained from Central Institute for Experimental Animals. Cryopreserved tumor pieces were thawed, and then OC-10-JCK, OC-11-JCK, and MC-19-JCK were transplanted subcutaneously to SCID mice, while TOGY-18 was transplanted subcutaneously to nude mice. After the tumors were grown, the tumors were removed and cut into tumor pieces. The tumor pieces were transplanted subcutaneously to SCID mice or nude mice with trocars. The tumors were maintained by repeated transplantation in the same manner as described above to prepare tumors to be transplanted. Human ovarian cancer cell lines ES-2, SK-OV-3, OV-90, and TOV-21G, and a human lung cancer cell line NCI-H1975 were obtained from American Type Culture Collection (ATCC). The SK-OV-3 and NCI-H1975 cell lines were grown in recommended culture media, of which about 1×10^7 cells were suspended into HBSS and then injected subcutaneously to SCID mice. After the cells formed tumors, the tumors were removed and cut into tumor pieces. The tumor pieces were transplanted subcutaneously to SCID mice with trocars. The tumors were maintained by repeated transplantation in the same manner as described above to prepare tumors to be transplanted. The OV-90 cell line was grown in a recommended culture medium, of which about 1×10^6 cells were suspended into HBSS and then injected subcutaneously to SCID mice. After the cells formed a tumor, the tumor was subjected to an anti-tumor test. The TOV-21G cell line was grown in a recommended culture medium, of which about 1×10^7 cells were suspended into HBSS and then injected subcutaneously to SCID mice. After the cells formed a tumor, the tumor was subjected to the anti-tumor test. The ES-2 cell line was grown in a recommended culture medium, suspended into HBSS, and then injected subcutaneously to nude mice. After the cells formed a tumor, the tumor was removed and cut into tumor pieces. The tumor pieces were transplanted subcutaneously to nude mice with a trocar. […]

[15] = test system: human ovarian cancer cells 2008; experiment: Anti-tumor test in mice transplanted subcutaneously with tumor (2008); details: 2008 s.c. in mice
Protocol: as §1

[16] = 40 mg/kg tail vein three times at 4 day intervals

CC(C)c1cc(-c2n[nH]c(=O)n2-c2ccc(CN3CCN(C)CC3)cc2)c(O)cc1O [A-1, 5-(2,4-dihydroxy-5-isopropyl-phenyl)-4-[4-(4-methyl-piperazin-1-ylmethyl)-phenyl]-2,4-dihydro-[1,2,4]triazol-3-one]
anti-tumor effect (in words) [1]: relatively highly effective
T/C % (lowest value from the beginning to the 21st day of administration) [1, 16]: 25.6%
T/C % (lowest value from the beginning to the 21st day of administration) [2]: 34.9%
T/C % (lowest value from the beginning to the 21st day of administration) [3]: 46.4%
T/C % (lowest value from the beginning to the 21st day of administration) [4]: 5.2%
T/C % (lowest value from the beginning to the 21st day of administration) [5]: 45.2%
T/C % (lowest value from the beginning to the 21st day of administration) [6]: 50.2%
T/C % (lowest value from the beginning to the 21st day of administration) [7]: 49.4%
anti-tumor effect (in words) [8]: hardly effective; also recorded: lowly effective
T/C % (lowest value from the beginning to the 21st day of administration) [8, 16]: 78.1%
anti-tumor effect (in words) [9]: relatively highly effective
T/C % (lowest value from the beginning to the 21st day of administration) [9, 16]: 25.0%
anti-tumor effect (in words) [10]: relatively highly effective
T/C % (lowest value from the beginning to the 21st day of administration) [10, 16]: 30.4%
T/C % (lowest value from the beginning to the 21st day of administration) [11]: 36.0%
anti-tumor effect (in words) [12]: relatively highly effective
T/C % (lowest value from the beginning to the 21st day of administration) [12, 16]: 3.0%
T/C % (lowest value from the beginning to the 21st day of administration) ([13]; OVCAR-3 s.c. in NOD/SCID mice, 40 mg/kg tail vein three times at 4 day intervals): 34.9%
anti-tumor effect (in words) ([13]; OVCAR-3 s.c. in mice): relatively highly effective
anti-tumor effect (in words) [14]: hardly effective; also recorded: lowly effective
T/C % (lowest value from the beginning to the 21st day of administration) [14, 16]: 62.4%
anti-tumor effect (in words) [15]: lowly effective
T/C % (lowest value from the beginning to the 21st day of administration) [15, 16]: 51.7%
